# Measurements published in patent US10751378B2, “Pharmaceutical composition comprising Pistacia weinmannifolia extract, fraction of same or compound separated from same for preventing or treating chronic obstructive pulmonary disease (COPD)” (Korea Research Institute of Bioscience and Biotechnology, priority 2014, dated 2020).
# Key:
# [1] = tested on: H292 cells; test: Cytotoxicity test: H292 cell viability (CCK-8); type: cell-based, human; conditions: 24 hours, negative control (0.2% DMSO) = 100%
# Protocol: To confirm the cytotoxicity of a Pistacia weinmannifolia extract, a fraction thereof, and a compound isolated therefrom, which were prepared and extracted in Example 1, experiments were performed by applying the method described in the existing references (Ishiyama et al., Talanta, 44, pp. 1299-1305, 1997; Tominaga et al., Anal. Commun., 36, pp. 47-50, 1999).
# H292 (CRL-1848) was purchased from the American Type Culture Collection (ATCC). The H292 cells were cultured in RPMI medium (SH30027.01, RPMI 1640, Gibco) containing 10% fetal bovine serum and antibiotics, and cultured in the condition of humidified 5% CO2 atmosphere at 37° C. TNF-α was purchase from a company (300-01A, Peprotech, USA) and used.
# The cells in a medium (GM) were placed in a 96-well plate at a density of (1×10^3 cells/well). After 24 hours, the cells were cultured along with a sample for one day. The cell viability rate was read via trivalues according to the manufacturer's manual using the Cell Counting Kit-8 (CK04-01, Dojindo Molecular Technologies, ML). The absorbance was measured using the VERSAmax microplate reader (SMP500-14915, Molecular Devices, USA) and the measured absorbance was converted into a cell number via a standard curve.
# H292 cells, human mucosa cells of lung cancer, were suspended in RPMI medium (Gibco) containing 10% fetal bovine serum in a concentration of 5×10^4 cells/mL, inoculated to a 96 well-plate in an amount of 100 μL per each well, and allowed to be attached thereto for 12 hours. Six active fractions of Pistacia and 3 single compounds (PW11, PW12, and PW13) were treated according to concentrations, and cultured for 24 hours. As explained in the cell counting CCK-8 kit (Dojindo Molecular Technologies, ML), the CCK-8 solution (10 μL) was mixed with the medium (90 μL). The mixture (100 μL) was added to each well, reacted for the minimum 30 minutes to the maximum 4 hours, and the absorbance was measured at 570 nm. The cell viability was calculated according to Equation 1 above with reference to the negative control, which was treated with DMSO in a concentration of 0.2%, set at 100%. Cell Viability (%)=[value at OD 570 nm after treatment with an extract/value at OD 570 nm (negative control)]×100 [Equation 1]
# [2] = tested on: MUC5AC; test: Inhibition of MUC5AC protein production induced by TNF-α (immunoassay of supernatant); type: cell-based; conditions: TNF-α 20 ng/mL; for inhibition at 0.125 µM / inhibition at 0.25 µM / inhibition at 0.5 µM / inhibition at 1 µM: read-out: Inhibition Rate (%) of MUC5AC production
# Source text: To analyze the effects of the Pistacia weinmannifolia extract, a fraction thereof, and a compound isolated therefrom, prepared and extracted in Example 1, on the prevention and treatment of inflammatory diseases such as COPD, the inhibitory effect of the Pistacia weinmannifolia extract, a fraction thereof, and a compound isolated therefrom against the secretion of a related protein, MUC5AC. In this regard, to confirm the inhibitory effect of the samples in Examples on the production of MUC5AC protein, experiments were performed using the method described in the reference (Sikder, M A. et al., Phytotherapy research: PTR. 28, 62-8, 2014).
# The supernatant, which was recovered for the immunoassay of the produced MUC5AC, was aliquoted into a 96 well-plate in an amount of 50 μL and dried in a homeostat set at 50° C. The resultant was washed with PBS containing 1% BSA, reacted with MUC5AC antibody (ab3649, abcam) at room temperature for one hour, and aliquoted with the secondary antibody and reacted for one hour. The resultant was rewashed, reacted with 3,3′,5,5′-tetramethylbenzidine peroxide solution (54827-17-7, Sigma-Aldrich) for 20 minutes, and the reaction was stopped with a sulfuric acid solution and the coloration was measured at 450 nm using a microplate reader (VERSAmax microplate reader, SMP500-14915, Molecular Devices, USA).
SMILES,"H292 Cell Viability Rate (%, Mean ± SD) ([1]; 0.125 μM) [%]","H292 Cell Viability Rate (%, Mean ± SD) ([1]; 0.25 μM) [%]","H292 Cell Viability Rate (%, Mean ± SD) ([1]; 0.5 μM) [%]","H292 Cell Viability Rate (%, Mean ± SD) ([1]; 1 μM) [%]",Amount of MUC5AC Secretion (Relative % to TNF-α Treated Group) ([2]; Conc. 0.125 μM) [%],inhibition at 0.125 µM ([2]; Conc. 0.125 μM) [%],Amount of MUC5AC Secretion (Relative % to TNF-α Treated Group) ([2]; Conc. 0.25 μM) [%],inhibition at 0.25 µM ([2]; Conc. 0.25 μM) [%],Amount of MUC5AC Secretion (Relative % to TNF-α Treated Group) ([2]; Conc. 0.5 μM) [%],inhibition at 0.5 µM ([2]; Conc. 0.5 μM) [%],Amount of MUC5AC Secretion (Relative % to TNF-α Treated Group) ([2]; Conc. 1 μM) [%],inhibition at 1 µM ([2]; Conc. 1 μM) [%]
O=C(/C=C/c1ccc(Oc2ccc(/C=C/C(=O)c3ccc(O)cc3O)cc2O)cc1)c1ccc(O)cc1O [Compound PW12],95.80 ± 2.90,96.47 ± 3.21,104.50 ± 1.32,115.88 ± 0.50,75.77 ± 7.66,24.2,74.23 ± 12.98,25.8,69.50 ± 5.37,30.5,69.74 ± 8.56,30.3
"O=C(/C=C/c1ccc(Oc2ccc([C@@H]3[C@@H](C(=O)c4ccc(O)cc4O)[C@H](C(=O)c4ccc(O)cc4O)[C@H]3c3ccc(O)cc3)cc2O)cc1)c1ccc(O)cc1O [Compound PW13, di-(2,4-dihydroxybenzoyl)-(3,4-dihydroxyphenyl)-(4-hydroxyphenyl)-cyclobutane-3-O-4′-bichalcone]",104.80 ± 2.34,103.53 ± 3.07,126.28 ± 7.75,71.92 ± 5.47,83.92 ± 9.77,16.1,82.39 ± 3.10,17.6,77.30 ± 2.33,22.7,73.76 ± 2.68,26.2
